{"source": "patent US7307102B2", "about": "“Method of preventing or treating estrogen-dependent diseases and disorders” (Duke University, priority 1997, dated 2007)", "key": {"[1]": {"assay": "Bone mineral density in ovariectomized rats (DEXA, pQCT)", "type": "in vivo, rat", "details": "oral, 28 days", "protocol": "FIGS. 3A and 3B. […] FIG. 3A. […] FIG. 3B.\nAnimal preparation. […] At sacrifice, animals were euthanized with C02, body weights were recorded and the uteri were removed and weighed. Uterus, vagina and mammary tissue were fixed in 10% neutral buffered formalin. Samples for histologic processing were taken from the mid-point of each uterine horn. Tissue samples were embedded in paraffin, stained with haematoxylin and eosin and evaluated microscopically. Lumbar vertebrae and both left and right tibiae were excised. Total blood cholesterol was measured (Roche Biomedical Laboratories)."}, "ER-TAF1": {"test_system": "ER-TAF1", "assay": "C3 promoter-luciferase cotransfection assay in HepG2 cells, ER-TAF1 (AF-2 disrupted)", "type": "cell-based, human", "description": "(§1) FIGS. 1A and 1B. […] The human C3 promoter (−1807 to +58) fused to the firefly luciferase reporter gene was transfected along with an expression plasmid containing (FIG. 1A) the wild-type human estrogen receptor (ERwt), or (FIG. 1B) a mutated ER in which the AF-2 function had been disrupted (ER-TAFl) into HepG2 cells and tested for transcriptional activation in the presence of increasing concentrations of ER-modulator as indicated. Transfections were normalized for efficiency and cell number by cotransfecting an expression plasmid containing β-galactosidase. The normalized response was obtained by dividing light units by the activity of β-galactosidase as measured in an enzymatic assay. Triplicate transfections were performed. The data shown are representative of multiple experiments performed under similar conditions.\n(§2) FIGS. 2A-2C. […] FIG. 2A. […] FIG. 2B. […] FIG. 2C. […] Transfections were normalized for efficiency and cell number by cotransfecting an expression plasmid containing β-galactosidase. The normalized response was obtained by dividing light units by the activity of β-galactosidase as measured in an enzymatic assay. Representative assays are shown in which triplicate transfections were performed. Error bars represent the standard error of the mean (SEM).\n(§3) HepG2 cells were maintained in Modified Eagles Medium (MEM) (Life Technologies, Grand Island, N.Y.) plus 10% Fetal Calf Serum (FCS) (Life Technologies). Cells were plated in 24 well plates (coated with gelatin) 24 hours prior to transfection. DNA was introduced into the cells using Lipofectin (Life Technologies). Briefly, triplicate transfections were performed using 3 μg of total DNA. For standard transfections, 500 ng of pCMV-β-Gal (normalization vector), 1500 ng reporter (variable) and 1000 ng receptor (pRST7-hER (Dana et al, Mol. Endocrinol. 8:1193-1207 (1994)) were used for each triplicate. Incubation of the cells with Lipofectin proceeded for 3 hrs, at which time media was removed, cells were washed with PBS and then induced with the appropriate hormone diluted in phenol red-free media containing 10% charcoal stripped CS (Cyclone Inc.). Incubation with hormone continued for 48 hrs, after which cells were lysed and assayed for luciferase and β-galactosidase activity as previously described (Norris et al, JBC 270:22777-22782 (1995)).\n(§4) A series of in vitro screens have been developed that permit the classification of ER-modulators into four mechanistically distinct groups (Tzukerman et al, Mol. Endocrinol. 8:21-30 (1994)). […] Using these assays, it has been possible to derive “fingerprints” of known ER-modulators (McDonnell et al, Mol. Endocrinol. 9:659-669 (1995)).\n(§5) Subsequently, the transfected cells were assayed for luceriferase and β-galactosidase activity. Each data point in this experiment represents the average of triplicate determinations of the transcriptional activity under given experimental conditions."}, "[2]": {"test_system": "MCF-7 breast cancer tumors", "assay": "Dose response study, MCF-7 breast cancer tumors in nude mice (Example 5)", "type": "in vivo, mouse", "details": "after 8 weeks, 0.6 mg and 1.0 mg vs 1.0 mg tamoxifen, FIG. 10", "protocol": "10 OVX donor mice were injected with 5 million MCF-7 cells. The resulting tumors were transplanted to recipient mice. All animals were given slow release estradiol pellets. […] Tumors were measured daily with calipers, and the area calculated as follows: Area=½×w/2×π."}, "[3]": {"target": "T1, wild-type human estrogen receptor (ERwt) (Homo sapiens, UniProt P03372)", "T1 construct": "expressed in transfected cells; host or cells: HepG2", "T1 sequence (P03372 1-595)": "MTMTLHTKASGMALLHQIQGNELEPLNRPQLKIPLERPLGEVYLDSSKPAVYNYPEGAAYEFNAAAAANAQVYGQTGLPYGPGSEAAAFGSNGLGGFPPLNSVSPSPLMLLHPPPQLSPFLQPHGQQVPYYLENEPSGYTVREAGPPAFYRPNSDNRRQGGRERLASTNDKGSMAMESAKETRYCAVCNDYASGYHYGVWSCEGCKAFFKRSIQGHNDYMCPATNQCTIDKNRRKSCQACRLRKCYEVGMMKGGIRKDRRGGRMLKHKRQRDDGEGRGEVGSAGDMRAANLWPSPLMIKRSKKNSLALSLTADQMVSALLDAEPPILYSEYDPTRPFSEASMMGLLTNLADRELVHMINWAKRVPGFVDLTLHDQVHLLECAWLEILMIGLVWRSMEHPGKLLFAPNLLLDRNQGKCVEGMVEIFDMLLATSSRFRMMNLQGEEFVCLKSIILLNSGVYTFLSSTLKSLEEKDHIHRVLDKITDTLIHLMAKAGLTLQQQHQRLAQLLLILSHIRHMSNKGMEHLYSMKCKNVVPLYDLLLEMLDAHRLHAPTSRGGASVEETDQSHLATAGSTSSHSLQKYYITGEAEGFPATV", "assay": "C3 promoter-luciferase cotransfection assay in HepG2 cells, ERwt", "type": "cell-based", "description": "as §1, §2, §3, §4, §5"}, "MCF-7/LCC2": {"test_system": "MCF-7/LCC2", "assay": "LCC2 study, MCF-7/LCC2 tumors in nude mice", "type": "in vivo, mouse", "details": "after 8 weeks, 1.0 mg every three days, FIG. 11", "protocol": "This experiment was conducted to determine the ability of GW5638 to retard the growth of this cell line in nude mice relative to control or tamoxifen treated tumors.\n40 OVX mice were prepared to accept cells and grouped as follows:\nControl animals received nothing and groups 3 and 4 received 0.1 ml injections in corn oil every three days. Tumors were measured Q3 days with calipers, and the area calculated as follows: Area=½×w/2×π."}, "[4]": {"test_system": "MCF-7 breast cancer tumors", "assay": "Antiestrogen treatment of MCF-7 breast cancer tumors in nude mice (Example 4)", "type": "in vivo, mouse", "details": "two highest doses of GW5638 (0.6 mg, 1.0 mg) vs 1.0 mg tamoxifen, FIG. 9", "protocol": "FIG. 9. Effect of anti-estrogen treatment on MCF-7 breast cancer tumors in nude mice.\nThis study was conducted using tumor cells derived from the MCF-7 breast cancer line. This line is estrogen and progesterone receptor positive, dependent upon hormone and sensitive to antihormones. The tumor cells were inoculated into the flank of ovariectomized, athymic BALB/c Urd nunu mice. The mice were supplemented with slow release estrogen pellets. Animals were given subcutaneous daily injections as indicated below:\nGroup 1: control (corn oil)\nUsing calipers, tumors were measured in 2 dimensions, where tumor area=½×w/2×π."}}, "data": [{"compound": "CC/C(=C(\\c1ccccc1)c1ccc(/C=C/C(=O)O)cc1)c1ccccc1", "note": "[GW5638]", "values": [{"measurement": "bone mineral density, lumbar spine", "setting": "[1]; 90-day old OVX rats, FIG. 3A", "value": "dose-dependent bone protective activity"}, {"measurement": "tibial BMD", "setting": "[1]; OVX rats, FIG. 3B", "value": "effective at maintaining total bone mass"}, {"measurement": "dose at which bone protection is as effective as estradiol", "setting": "[1]; lumbar spine BMD, OVX rats, 3 μmol/kg(1 mg/kg)", "value": 3, "unit": "µmol/kg"}, {"measurement": "inhibition of the partial agonist activity of raloxifene on ER-TAF1", "setting": "ER-TAF1; ER-TAF1", "value": "inhibited"}, {"measurement": "inhibition of estradiol- and tamoxifen-induced ER-TAF1 transcriptional activity", "setting": "ER-TAF1; ER-TAF1, FIG. 2B", "value": "capable of inhibiting"}, {"measurement": "agonist activity on ER-TAF1", "setting": "ER-TAF1; ER-TAF1, compound alone, FIG. 1B", "value": "functionally inactive"}, {"measurement": "tumor growth compared with tamoxifen", "setting": "[2]", "value": "indistinguishable from the 1.0 mg tamoxifen"}, {"measurement": "reversal of the inverse agonist activity of ICI182,780", "setting": "[3]; C3 promoter, co-addition with ICI182,780, FIG. 2C", "value": "partially reversed"}, {"measurement": "inhibition of the agonist activity manifested by tamoxifen or estradiol", "setting": "[3]; ERwt, 10^−8M 17-β-estradiol or tamoxifen, FIG. 2A", "value": "inhibited"}, {"measurement": "agonist / inverse agonist activity on the C3 promoter", "setting": "[3]; ERwt, compound alone, FIG. 1A/2A", "value": "do not demonstrate any agonist or antagonist activity"}, {"measurement": "tumor growth", "setting": "MCF-7/LCC2", "value": "equally inhibit growth of this tumor"}, {"measurement": "effect on tumors compared with tamoxifen", "setting": "[4]", "value": "no significant difference"}]}]}
